# Measurements: PubChem BioAssay (NCI)
#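 A five-concentration, 48-hour dose response in 96-well plates underlies each endpoint, interpolated linearly between surrounding concentrations. GI50: concentration for 50% inhibition of growth. Definition used: TGI = concentration required for complete inhibition of growth.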
# Assays:
# Assay in all cases: inhibition of tumour cell growth, NCI panel, 48 h
# [1] = system: NCI-H522 lung
# [2] = system: COLO 205 colon
# [3] = system: HT29 colon
# [4] = system: UACC-62 melanoma
# [5] = system: RXF 393 renal
# [6] = system: U251 CNS
# [7] = system: OVCAR-4 ovarian
# [8] = system: NCI/ADR-RES ovarian
# [9] = system: HS 578T breast
# [10] = system: MALME-3M melanoma
Structure (SMILES),TGI [1] [µM],TGI [2] [µM],TGI [3] [µM],TGI [4] [µM],TGI [5] [µM],TGI [6] [µM],TGI [7] [µM],GI50 [8] [µM],TGI [8] [µM],GI50 [1] [µM],GI50 [9] [µM],TGI [9] [µM],GI50 [2] [µM],GI50 [3] [µM],GI50 [4] [µM],GI50 [5] [µM],GI50 [10] [µM],TGI [10] [µM],GI50 [6] [µM],GI50 [7] [µM]
COc1nc2c(c(O)c(C)c(=O)n2OC2OCC(OC(C)=O)C(OC(C)=O)C2OC(C)=O)c(=O)n1C (centres undefined),> 100,> 100,> 100,> 100,> 100,> 100,> 100,,,,,,,,,,,,,
COc1ccc(OC)c(/C=C/c2nc(=S)n(-c3ccc(Cl)cc3)[nH]2)c1,> 100,68.4,> 100,> 100,38.7,> 100,> 100,3.63,> 100,4.07,3.1,> 100,12.4,3.67,3.11,3.38,70.6,> 100,6.88,20.6
O=c1cc(O)cc2n1CCC2,> 100,> 100,> 100,> 100,> 100,> 100,,,,,,,,,,,,> 100,,
COC(=O)/C=C(/C(=O)OC)C1(C)c2cc(C(=O)OC)c(C(=O)OC)c(N)c2C(=N)N1c1ccccc1 (centres undefined),27.8,29.7,31.7,41.2,36.1,48.9,,,,,,,,,,,,32.7,,
C[C@]12CC[C@H]3[C@@H](CCC4=CC(=O)CC[C@@]43C)[C@@H]1CC[C@@H]2c1csc(N)n1,24.9,14.2,18.3,17.8,24.2,19,27.2,2.54,22.4,7.18,8.84,35.8,3.57,4.41,2.68,10.8,,,3.83,2.98
COc1ccc2sc3c(NCCCN)nc4ccccc4c3c(=O)c2c1,3.49,3.71,,3.21,2.9,3.19,3.56,,,1.63,,,1.8,,1.72,1.5,1.78,3.32,1.62,1.86
CCn1c2c(c3ccccc3c1=O)C(=O)c1ccccc1-2,> 100,> 100,> 100,> 100,,> 100,> 100,,> 100,,,> 100,,,,,,> 100,,
O=C(NC1C(=O)NNC1c1cccc([N+](=O)[O-])c1)c1ccccc1 (centres undefined),,> 100,> 100,> 100,> 100,> 100,> 100,,,,,,,,,,,> 100,,
COC(=O)C1C(=O)O[C@@H](c2ccc3c(c2)OCO3)C1C(=O)OC (mixture of isomers),> 100,> 100,> 100,> 100,> 100,> 100,> 100,,,,,,,,,,,> 100,,
O=C1CC(c2ccccc2)Oc2ccccc21 (centres undefined),,> 100,59.7,> 100,94.4,> 100,> 100,,> 100,,,> 100,,,,,,,,
O=C1c2cccc(Oc3ccccc3)c2C(=O)c2cccc(Oc3ccccc3)c21,> 100,> 100,> 100,> 100,36.4,> 100,,> 100,> 100,> 100,7.68,> 100,> 100,> 100,> 100,4.7,> 100,> 100,33.3,
CC(=O)O[C@H]1C(=O)[C@@]2(C)C([C@H](OC(=O)c3ccccc3)[C@]3(O)C[C@H](OC(=O)[C@H](O)[C@@H](NC(=O)c4ccccc4)c4ccccc4)C(C)=C1C3(C)C)[C@]1(OC(C)=O)CO[C@@H]1C[C@@H]2O (some centres undefined),0.0146,0.0246,,> 50,0.0382,> 50,> 50,1.81,41.9,,,> 50,< 0.005,< 0.005,0.0207,0.00516,,,0.0111,0.198
CCOC(=O)c1nc(C)oc1C(F)(F)F,> 100,> 100,> 100,> 100,> 100,> 100,> 100,,,,,,,,,,,> 100,,
Cc1ccc2c(c1)CN1c3ccc(C)cc3CN2C1c1ccccc1O,> 100,> 100,> 100,> 100,61.2,> 100,> 100,,,,,,,,,,,> 100,,
O=[N+]([O-])c1ccc(Cl)c2c([N+](=O)[O-])cccc12,,> 10,> 10,> 10,> 10,,> 10,,,,,,,,,,,> 10,,
CCCCCCCCCCCC[N+]1(CCCCCCCCCCCC)CCCC(C)C1 (centres undefined),,,1.09,1.27,0.894,1.29,,4.41,> 100,,0.472,2.2,,0.186,0.244,0.198,,,0.327,
C[C@]12Cc3cn[nH]c3C(=O)C1CC[C@@H]1C2CC[C@@]2(C)C1CC[C@@H]2O (some centres undefined),> 100,> 100,> 100,> 100,> 100,> 100,> 100,,,,,,,,,,,> 100,,
N#CC(C(=O)C(=O)Nc1c(Cl)cccc1Cl)c1ccccc1 (centres undefined),,> 100,> 100,> 100,,> 100,> 100,,,,,,> 100,> 100,> 100,,> 100,> 100,> 100,> 100
O=C(NC12CC3CCC1CC(C3)C2)[C@@H]1CCCN1C(=O)OCc1ccccc1 (some centres undefined),> 100,> 100,> 100,> 100,54.6,> 100,,,,,,,,,,,,> 100,,
Nc1ncc(Cc2ccc3c(c2)OCO3)c(N)n1,,> 100,> 100,> 100,> 100,> 100,> 100,,> 100,,,> 100,,,,,,> 100,,

Structure (SMILES),TGI [1] [µM],TGI [2] [µM],TGI [3] [µM],TGI [4] [µM],TGI [5] [µM],TGI [6] [µM],TGI [7] [µM],GI50 [8] [µM],TGI [8] [µM],GI50 [1] [µM],GI50 [9] [µM],TGI [9] [µM],GI50 [2] [µM],GI50 [3] [µM],GI50 [4] [µM],GI50 [5] [µM],GI50 [10] [µM],TGI [10] [µM],GI50 [6] [µM],GI50 [7] [µM]
N#C/C(=C\c1cc(OCc2ccccc2)c(OCc2ccccc2)cn1)C(N)=O,41.2,> 100,> 100,> 100,> 100,> 100,> 100,,,,,,,,,,,> 100,,
CNCc1cccc2c1OCCOCCOCCN(C)S(=O)(=O)c1ccc(cc1)-c1cnc(N)c(n1)C(=O)N2,4.94,3.23,4.92,2.87,2.58,3.37,,14.3,32.6,1.76,0.663,3.64,0.775,1.08,1.3,0.614,1.53,3.72,1.53,
O=[N+]([O-])c1ccccc1C1SCc2nc3ccccc3n21 (centres undefined),> 100,,> 100,> 100,> 100,> 100,> 100,,,,,,,,,,,> 100,,
CCN(CC)Cc1cc(Nc2nc(NC3CCC(N(C)C)CC3)c3ccccc3n2)ccc1OC (centres undefined),6.96,2.87,7.11,27.2,8.44,14.5,18.3,,,2.45,0.677,14.5,1.5,2.42,13.2,0.578,1.61,3.73,3.61,4.24
Cc1ccc(S(=O)(=O)OCC/C(=C\[Si](C)(C)C)c2ccccc2)cc1,> 100,> 100,> 100,> 100,> 100,> 100,> 100,,,,,,,,,,,> 100,,
NNC(=O)C(=O)N/N=C1/CCCC1C(=O)CCC(=O)Nc1ccc(Cl)cc1 (centres undefined),> 100,> 100,> 100,24,> 100,> 100,> 100,,,,,,,,,,,> 100,,
OCc1cc2c(cn1)[nH]c1ccc(NCc3ccccc3)cc12,52,37,32.2,42.7,78.5,> 100,> 100,,,,,,,,,,,> 100,,
CC1=N/C(=C\c2ccc(/C=C3/N=C(C)OC3=O)cc2)C(=O)O1,> 100,> 100,> 100,> 100,> 100,> 100,> 100,,,,,,,,,,,> 100,,
O=c1/c(=C/c2ccccc2[N+](=O)[O-])sc2nnc(-c3cccnc3)n12,,,> 100,> 100,> 100,,> 100,,,,,,,,,,,> 100,,
O=C(NCCNCCO)c1ccc2c(c1)oc1cc3ccccc3c(=O)n12,> 50,47.3,> 50,> 50,> 50,42.6,> 50,> 50,> 50,18.2,,,18.9,29.4,> 50,14.2,19.7,> 50,14.7,> 50
COc1cc(Nc2cnc3ccc(C(F)(F)F)cc3n2)cc(OC)c1OC,,> 100,> 100,,> 100,> 100,,,,,,,,,,,,> 100,,
COC(=O)CCC(NC(=S)N/N=C/c1cccs1)C(=O)OC (centres undefined),> 100,> 100,> 100,> 100,> 100,> 100,> 100,,,,,,,,,,,> 100,,
O=C1/C(=C\c2ccccc2)CN(C(=O)CCN2CCCCC2)C/C1=C/c1ccccc1,2.31,3.83,2.03,3.08,3.53,1.86,4.34,,,,,5.87,,,,,,5.44,,
O=C1NC(=O)c2c1n(Cc1ccccc1)c(=O)n2Cc1ccccc1,> 100,> 100,> 100,> 100,> 100,> 100,> 100,,,,,,,,,,,> 100,,
CCc1ccccc1NC(=O)c1cccc([N+](=O)[O-])c1O,62.6,31.4,> 100,> 100,45.1,> 100,> 100,,,,,,,,,,,> 100,,
Cc1nc(N)nc(CCC(=O)Nc2cccc(C(F)(F)F)c2)c1-c1ccc(Cl)cc1,> 100,> 100,> 100,> 100,> 100,> 100,> 100,,,,,,,,,,,> 100,,
O=C1NC2=C(CCCCC/C2=N\O)C12CCCCCC2,> 100,> 100,> 100,> 100,> 100,> 100,> 100,,,,,,,,,,,> 100,,
N#Cc1nc2c(S(=O)(=O)c3ccc(Cl)cc3)c(N)n(Nc3cccc(Cl)c3)c2nc1C#N,0.449,,,0.336,,,,0.0505,> 100,0.11,,,,0.0295,0.115,,0.0532,0.33,0.0294,0.0166
CCCCCOc1ccc(/C=N/Nc2cc(C)nc3ccc(Cl)cc23)cc1,3.08,3.61,2.81,3.15,3.08,3.16,3.22,1.89,3.92,1.63,,,1.89,1.44,1.68,1.63,1.85,3.39,1.7,1.72
COc1cc2oc(-c3ccc(O)cc3)cc(=O)c2c(O)c1C1OC(CO)C(O)C(O)C1O (centres undefined),> 100,> 100,> 100,> 100,,> 100,> 100,,,,,,,,,,,> 100,,
